“Also recorded” adds a separate entry of the source. Read-outs that look alike come from different tables or passages of the source. Blank lines part the entries; values can stand above or below the compound they belong to.
Legend:
[1] = target: T1, RAD51 (Homo sapiens, UniProt Q06609); test: Fluorescence polarization-based DNA binding assay (RAD51-ssDNA binding); format: biochemical; settings: for ssDNA binding IC50 / IC50: Stim = stimulator; for Emax: read-out: ssDNA binding Max effect; for influence on RAD51-ssDNA binding, in words: summary of Tables 2 and 3
T1 sequence (Q06609 1-339): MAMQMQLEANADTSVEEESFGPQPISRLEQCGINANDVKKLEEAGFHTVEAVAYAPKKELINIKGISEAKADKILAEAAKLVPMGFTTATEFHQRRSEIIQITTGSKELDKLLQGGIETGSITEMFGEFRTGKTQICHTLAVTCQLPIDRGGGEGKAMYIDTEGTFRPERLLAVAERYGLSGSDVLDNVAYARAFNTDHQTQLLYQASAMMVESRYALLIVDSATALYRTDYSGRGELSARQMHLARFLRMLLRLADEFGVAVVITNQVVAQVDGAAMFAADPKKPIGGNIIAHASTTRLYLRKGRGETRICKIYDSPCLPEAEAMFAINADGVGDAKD
Procedure: The fluorescence polarization-based DNA binding assay and purification of human RAD51 used for this assay was performed as previously described with a few modifications.^23 Reactions were carried out in black 384-well polystyrene plates. In each well, RAD51 protein was combined with reaction buffer and varying concentrations of compound in DMSO in an initial volume of 40 μl and incubated at 37° C. for 40 minutes. Then, 10 μl of reaction buffer containing fluorescently-labeled ssDNA substrate (5′-Alexa488-oligo-dT45) was added and the reaction incubated at 37° C. for another 40 minutes, after which the plate was read on a Tecan Infinite 200 Pro plate reader equipped with two sets of 485±25 nm/535±35 nm with parallel or perpendicularly-oriented polarization filters. In both steps of the reaction setup, buffer components were maintained at 20 mM HEPES-NaOH (pH 7.5), 2 mM ATP, 10 mM MgCl2, 0.1 mM TCEP-HCl (tris(2-carboxyethyl)phosphine), and 0.25 μM BSA. The final reaction contained 4% DMSO, 0.2 μM RAD51, 30 mM NaCl, 2% glycerol, and 2.22 nM ssDNA substrate. Compound IC50 values were obtained by least-squares regression fitting of appropriate linear, log, or sigmoid dose-response models to the data, with the standard error indicated. […]

[2] = target: T1, RAD51; test: Gel-based D-loop assay; format: biochemical; settings: for IC50: read-out: D-Loops IC50; for D-loop inhibitory activity, in words: summary of Tables 2 and 3
Procedure: Human RAD51 in reaction buffer was combined with compound in […] DMSO, incubated at 37° C. for 10 min, and then 1 μl of 5′-^32P-labeled 90-mer ssDNA (5′-[…]) with homology to the plasmid pRS306 ^34 was added and the reaction was incubated at 37° C. for an additional 5 minutes. 1 μl of supercoiled pRS306 was then added to the reaction and incubated at 37° C. for 20 minutes; at this point the reaction consisted of 25 mM HEPES-NaOH (pH 7.0), 1 mM ATP, 1 mM MgCl2, 1 mM DTT, 1.5 μM BSA, 4.5% DMSO, 0.5 μM RAD51, 11 mM NaCl, 1% glycerol, 20 nM ssDNA, and 5 nM pRS306. The reactions were de-proteinized with 0.8% SDS and 0.8 mg/ml proteinase K, mixed with gel loading buffer, and run on a 0.9% agarose/1×TAE gel, which was dried and exposed to a phosphor screen overnight and imaged on a Storm 860 PhosphorImager. Compound IC50 values were obtained by least-squares regression fitting of appropriate linear, log, or sigmoid dose-response models to the data, with the standard error indicated.
To improve upon the D-loop inhibitory activity, medicinal chemical studies were undertaken to optimize 8. First, different functional groups were appended to rings A and B as substituents, including alkyl groups of different sizes, electron withdrawing/donating groups, and hydrogen bond donor/acceptor groups. Next, replacement of the phenyl ring B with different heterocycles or other saturated/unsaturated rings was investigated in order to probe its role. For each of the prepared compounds, the gel-based D-loop assay and the microplate-based DNA binding assay were used to characterize the biochemical activities.

[3] = Table 3, cells marked ↑: compound stimulates RAD51-ssDNA binding
[4] = Table 3, cells marked ↓: compound inhibits RAD51-ssDNA binding
[5] = Table 2, cells marked ↑: compound stimulates RAD51-ssDNA binding
[6] = Table 2, cells marked ↓: compound inhibits RAD51-ssDNA binding

Compound: FC(F)(F)Oc1ccc(-c2nc3ccccc3n3cccc23)cc1 [Compound 9e, 4-(4-(Trifluoromethoxy)phenyl)pyrrolo[1,2-a]quinoxaline]
ssDNA binding IC50 ([1]; Table 2): Stim
Emax [1, 5]: 30 ± 21%

Compound: O=[N+]([O-])c1ccc(-c2nc3ccccc3n3cccc23)cc1 [Compound 9f, 4-(4-Nitrophenyl)pyrrolo[1,2-a]quinoxaline]
Emax [1, 6]: 16 ± 13%

Compound: COc1ccc2c(c1)nc(-c1ccc(N(C)C)cc1)c1cccn12 [Compound 8, 4-(7-Methoxypyrrolo[1,2-a]quinoxalin-4-yl)-N,N-dimethylaniline]
ssDNA binding IC50 ([1]; Table 1): Stim
Emax ([1]; Table 1, cells marked ↑: compound stimulates RAD51-ssDNA binding): 40 ± 28%
D-Loops Max inhibition effect ([2]; Table 1): 67%
IC50 ([2]; Table 1): 13 µM

Compound: Nc1ccc(-c2nc3ccccc3n3cccc23)cc1 [Compound 9g, 4-(Pyrrolo[1,2-a]quinoxalin-4-yl)aniline]
IC50 ([1]; Table 2): > 100 µM
Emax [1, 6]: 18 ± 11%
IC50 ([2]; Table 2): 22.1 µM

Compound: CN(C)c1ccc(-c2nc3ccccc3n3cccc23)cc1 [Compound 9a, N,N-dimethyl-4-(pyrrolo[1,2-a]quinoxalin-4-yl)aniline]
ssDNA binding IC50 ([1]; Table 2): Stim
Emax [1, 5]: 88 ± 22%
influence on RAD51-ssDNA binding, in words [1]: modest influence
IC50 ([2]; Table 2): 27.6 ± 6 µM

Compound: O=[N+]([O-])c1cccc(-c2nc3ccccc3n3cccc23)c1 [Compound 9b, 4-(3-Nitrophenyl)pyrrolo[1,2-a]quinoxaline]
Emax [1, 6]: 52 ± 14%
influence on RAD51-ssDNA binding, in words [1]: modest influence

Now from value to compound, other results behind:

ssDNA binding IC50 ([1]; Table 3): Stim
Emax [1, 3]: 105 ± 47%
influence on RAD51-ssDNA binding, in words [1]: stimulators
Compound: COc1ccc2c(c1)nc(-c1ccc([N+](=O)[O-])cc1)c1cccn12 [Compound 12b, 7-Methoxy-4-(4-nitrophenyl)pyrrolo[1,2-a]quinoxaline]

IC50 ([1]; Table 3): > 100 µM
Emax [1, 4]: 72 ± 11%
IC50 ([2]; Table 3): 27.6 ± 4.9 µM
Compound: Oc1ccc(-c2nc3cc(O)ccc3n3cccc23)cc1 [Compound 12d, 4-(4-Hydroxyphenyl)pyrrolo[1,2-a]quinoxalin-7-ol]

ssDNA binding IC50 ([1]; Table 3): Stim
Emax [1, 3]: 57 ± 28%
D-loop inhibitory activity, in words [2]: nearly absent
Compound: CN(C)c1ccc(-c2nc3cc(F)ccc3n3cccc23)cc1 [Compound 12j, 4-(7-Fluoropyrrolo[1,2-a]quinoxalin-4-yl)-N,N-dimethylaniline]

Emax [1, 4]: 87 ± 10%
D-Loops Max inhibition effect ([2]; Table 3): 53 ± 30%
Compound: Oc1ccc2c(c1)nc(-c1cccnc1)c1cccn12 [Compound 13b, 4-(Pyridin-3-yl)pyrrolo[1,2-a]quinoxalin-7-ol]

ssDNA binding IC50 ([1]; Table 3): Stim
Emax [1, 3]: 79 ± 23%
IC50 ([2]; Table 3): 20 ± 4.1 µM
Compound: Nc1ccc(-c2nc3cc(OCCF)ccc3n3cccc23)cc1 [Compound 15b, 4-(7-(2-Fluoroethoxy)pyrrolo[1,2-a]quinoxalin-4-yl)aniline]
influence on RAD51-ssDNA binding, in words [1]: stimulators; also recorded: modest effects

ssDNA binding IC50 ([1]; Table 2): Stim
Emax [1, 5]: 56 ± 31%
influence on RAD51-ssDNA binding, in words [1]: modest influence
D-loop inhibitory activity, in words [2]: weak
Compound: c1ccc2c(-c3nc4ccccc4n4cccc34)cccc2c1 [Compound 11d, 4-(Naphthalen-1-yl)pyrrolo[1,2-a]quinoxaline]

ssDNA binding IC50 ([1]; Table 2): Stim
Emax [1, 5]: 42 ± 17%
influence on RAD51-ssDNA binding, in words [1]: modest influence
D-loop inhibitory activity, in words [2]: weak
Compound: C1=C(c2nc3ccccc3n3cccc23)CCCC1 [Compound 11c, 4-(Cyclohex-1-en-1-yl)pyrrolo[1,2-a]quinoxaline]

IC50 ([1]; Table 3): 35 ± 14 µM
Emax [1, 4]: 100 ± 18%
D-Loops Max inhibition effect ([2]; Table 3): 13 ± 12%
IC50 ([2]; Table 3): > 100 µM
Compound: COc1ccc2c(c1)nc(-c1ccc(O)cc1)c1cccn12 [Compound 12a, 4-(7-Methoxypyrrolo[1,2-a]quinoxalin-4-yl)phenol]
influence on RAD51-ssDNA binding, in words [1]: relatively strong ssDNA binding inhibition

Source: US10973819B2, “Small molecules inhibitors of RAD51” (The University of Chicago, priority 2016, dated 2021)
